The values that follow come from patent US7125900B2, “Inhibitors of 11-β-hydroxy steroid dehydrogenase type 1” (Biovitrum AB, priority 2000, dated 2006).

For one series, the system named is bone nodule formation. The note with it: cited from earlier work.
The target in a further series is T1, human 11-β-HSD1 enzyme (Homo sapiens, UniProt P28845).
T1 construct: made in house; host or cells: Pichia pastoris
Description: human 11-β-HSD1 enzyme assay (scintillation proximity assay). The note with it: human 11-β-HSD1 expressed in Pichia pastoris; Ki calculated from IC50 by Cheng-Prusoff. The class given is biochemical. The source says:
[1, 2(n)—^3H]-cortisone was purchased from Amersham Pharmacia Biotech. Anti-cortisol monoclonal mouse antibody, clone 6D6.7 was obtained from Immunotech and Scintillation proximity assay (SPA) beads coated with monoclonal antimouse antibodies were from Amersham Pharmacia Biotech. NADPH, tetrasodium salt was from Calbiochem and glucose-6-phosphate (G-6-P) was supplied by Sigma. The human 11-β-hydroxysteroid dehydrogenase type-I enzyme (11-β-HSD1) was expressed in Pichia pastoris. 18-β-glycyrrhetinic acid (GA) was obtained from Sigma. The serial dilutions of the compounds were performed on a Tecan Genesis RSP 150. Compounds to be tested were dissolved in DMSO (1 mM) and diluted in 50 mM Tris-HCl, pH 7.2 containing 1 mM EDTA.
The multiplication of plates was done on a WallacQuadra. The amount of the product [^3H]-cortisol, bound to the beads was determined in a Packard, Top Count microplate liquid scintillation counter.
The 11-β-HSD1 enzyme assay was carried out in 96 well microtiter plates (Packard, Optiplate) in a total well volume of 220 μL and contained 30 mM Tris-HCl, pH 7.2 with 1 mM EDTA, a substrate mixture tritiated Cortisone/NADPH (175 nM/181 μM), G-6-P (1 mM) and inhibitors in serial dilutions (9 to 0.15 μM). Reactions were initiated by the addition of human 11-β-HSD1, either as Pichia pastoris cell homogenate or microsomes prepared from Pichia pastoris (the final amount of enzyme used was varied between 0.057 to 0.11 mg/mL). Following mixing, the plates were shaken for 30 to 45 minutes at room temperature. The reactions were terminated with 10 μL 1 mM GA stop solution. Monoclonal mouse antibody was then added (10 μL of 4 μM) followed by 100 μL of SPA beads (suspended according to the manufacturers instructions). Appropriate controls were set up by omitting the 11-β-HSD1 to obtain the non-specific binding (NSB) value.
The plates were covered with plastic film and incubated on a shaker for 30 minutes, at room temperature, before counting. The amount of [^3H]-cortisol, bound to the beads was determined in a microplate liquid scintillation counter.
The calculation of the Ki values for the inhibitors was performed by use of Activity Base. The Ki value is calculated from IC50 and the Km value is calculated using the Cheng Prushoff equation (with reversible inhibition that follows the Michaelis-Menten equation): […] [Cheng, Y. C.; Prushoff, W. H. Biochem. Pharmacol. 1973, 22, 3099-3108]. The IC50 is measured experimentally in an assay wherein the decrease of the turnover of cortisone to cortisol is dependent on the inhibition potential of each substance. […] Illustrative of the invention, the following Ki values have been determined in the human 11-β-HSD1 enzyme assay (see Table 1): […]

T1 sequence (P28845 whole entry): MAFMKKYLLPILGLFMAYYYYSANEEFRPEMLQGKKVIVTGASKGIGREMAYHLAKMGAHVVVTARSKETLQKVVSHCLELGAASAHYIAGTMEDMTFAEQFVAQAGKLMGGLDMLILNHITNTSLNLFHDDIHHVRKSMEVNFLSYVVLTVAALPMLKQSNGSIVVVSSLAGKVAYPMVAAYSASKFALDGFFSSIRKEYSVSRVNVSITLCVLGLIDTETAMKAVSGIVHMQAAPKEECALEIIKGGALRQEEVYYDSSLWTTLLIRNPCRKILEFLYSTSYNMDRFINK

For the compound `CC1(C)[C@@H](OC(=O)CCC(=O)O)CC[C@]2(C)[C@H]3C(=O)C=C4[C@@H]5C[C@@](C)(C(=O)O)CC[C@]5(C)CC[C@@]4(C)[C@]3(C)CC[C@@H]12` [carbenoxolone], the “negative glucocorticoid effect on bone nodule formation” value in the series on bone nodule formation was “blocked”.
Usually Ki stands for the equilibrium dissociation constant of an inhibitor or competing ligand from its target. As to `C=Cc1csc(NS(=O)(=O)c2cccc(Cl)c2C)n1` [Example 18, 3-Chloro-2-methyl-N-(4-vinyl-1,3-thiazol-2-yl)benzenesulfonamide], the Ki on human 11-β-HSD1 enzyme is 90 nM.
The melting point is the temperature, or range, at which the solid turns liquid. As to `CCCc1csc(NS(=O)(=O)c2cccc(Cl)c2C)n1` [Example 11, 3-Chloro-2-methyl-N-(4-propyl-1,3-thiazol-2-yl)benzenesulfonamide], the melting point was 169 °C.
With `Cc1csc(NS(=O)(=O)c2cccc(Cl)c2C)n1` [Example 3, 3-Chloro-2-methyl-N-(4-methyl-1,3-thiazol-2-yl)benzenesulfonamide], the Ki at human 11-β-HSD1 enzyme was 122 nM.
Same read-out and setting: next, `CC(=O)c1sc(NS(=O)(=O)c2ccc(Oc3cccc(Cl)c3C#N)cc2)nc1C` [Example 22, N-(5-acetyl-4-methyl-1,3-thiazol-2-yl)-4-(3-chloro-2-cyanophenoxy)benzenesulfonamide]: 108 nM.
With `Cc1nc(NS(=O)(=O)c2c(Cl)cc(Cl)cc2Cl)sc1CC(Cl)(Cl)Cl` [Example 6, 2,4,6-trichloro-N-[4-methyl-5-(2,2,2-trichloroethyl)-1,3-thiazol-2-yl]benzenesulfonamide], the melting point was in the range of 228 to 229 °C. The Ki at human 11-β-HSD1 enzyme was 123 nM.
In turn, `Cc1c(Cl)cccc1S(=O)(=O)Nc1nc(C(C)(C)C)cs1` [Example 15, N-(4-Tert-butyl-1,3-thiazol-2-yl)-3-chloro-2-methylbenzenesulfonamide] showed a melting point of 178 °C.
